# Experiments:
# [1] = target: T1, Aldehyde dehydrogenase 1, mitochondrial (Saccharomyces cerevisiae, UniProt P22281); experiment: Inhibition of yeast aldehyde dehydrogenase by spectrophotometry following NADH formation at 340 nm
# T1 sequence (P22281 whole entry): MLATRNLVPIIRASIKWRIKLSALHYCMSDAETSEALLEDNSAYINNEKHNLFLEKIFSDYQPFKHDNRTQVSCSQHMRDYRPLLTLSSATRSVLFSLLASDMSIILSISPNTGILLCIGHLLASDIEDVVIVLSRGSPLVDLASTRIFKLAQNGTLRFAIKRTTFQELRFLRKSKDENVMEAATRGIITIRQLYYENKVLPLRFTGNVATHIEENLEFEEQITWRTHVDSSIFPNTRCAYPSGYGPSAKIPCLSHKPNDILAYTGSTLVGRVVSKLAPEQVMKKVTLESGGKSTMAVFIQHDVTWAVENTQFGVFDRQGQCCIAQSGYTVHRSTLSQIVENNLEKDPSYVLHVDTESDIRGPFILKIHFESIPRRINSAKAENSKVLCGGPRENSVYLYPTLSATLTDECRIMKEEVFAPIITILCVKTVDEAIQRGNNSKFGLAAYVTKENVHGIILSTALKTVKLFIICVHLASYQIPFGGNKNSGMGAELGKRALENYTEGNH
# [2] = target: T2, Aldehyde dehydrogenase 1, mitochondrial (Saccharomyces cerevisiae) (UniProt P22281); experiment: Inhibition of yeast aldehyde dehydrogenase at 0.5 mM by spectrophotometry following NADH formation at 340 nm
# T2 sequence (whole entry): T1 sequence (P22281 whole entry)
Structure (SMILES),IC50 [1] [µM],inhibition [2] [%]
CCCCCCCC/C=C/C(=O)CCCCCCC(=O)O,280,–
CCCCCC/C=C/C(=O)CCCCCCC(=O)OCC,170,–
CCCCCCCC/C=C/C(=O)CCCCCCC(=O)OCC,430,–
CCCCC/C=C/C=C/C(=O)CCCCCCCC(=O)O,–,< 50
CCCCCC(=O)/C=C/C=C/CCCCCCCC(=O)OCC(O)CO (stereo not given),–,< 50
